Assay results published in patent publication US12077503B2, “Substituted cyclic amides and their use as herbicides” (FMC CORPORATION, priority 2015, dated 2024).

Columns and labels:
Assay type in all cases: in vivo
[1] = system: ducksalad (Heteranthera limosa); assay: Test B flooded paddy test; details: Heteranthera limosa, 250 g ai/ha, Flood; 0 to 100 scale where 0 is no effect and 100 is complete control; read-out: Ducksalad plant response rating
Summary of the method: (§1)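 Evaluation by eye, against controls, occurred 13–15 d post-treatment in a greenhouse, using a 0 (no effect) to 100 (complete control) scale. Application was into the paddy water, 3 cm deep over the soil, on 2-leaf plants.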

[2] = system: barnyardgrass (Echinochloa crus-galli); assay: Test B flooded paddy test; details: Echinochloa crus-galli, 250 g ai/ha, Flood; 0 to 100 scale where 0 is no effect and 100 is complete control; read-out: Barnyardgrass plant response rating
Summary of the method: as §1

rice (Oryra sativa) = assay: Test B flooded paddy test; details: Oryza sativa, 250 g ai/ha, Flood; 0 to 100 scale where 0 is no effect and 100 is complete control; read-out: Rice plant response rating
Summary of the method: as §1

[3] = system: sedge, umbrella (small-flower umbrella sedge, Cyperus difformis); assay: Test B flooded paddy test; details: Cyperus difformis, 250 g ai/ha, Flood; 0 to 100 scale where 0 is no effect and 100 is complete control; read-out: Sedge, Umbrella plant response rating
Summary of the method: as §1

[4] = system: ryegrass, Italian (Italian ryegrass, Lolium multiflorum); assay: Test A postemergence; details: Lolium multiflorum, post-emergence, 240 h
Summary of the method: (§2)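 Seeded soil received test chemicals as a preemergence directed spray, and seedlings at one to two leaves, 2–10 cm tall, received them postemergence, in a non-phytotoxic, surfactant-containing solvent mixture. Pots were held in a greenhouse for approximately 10 d, then rated for injury from 0, no effect, to 100, complete control.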

[5] = system: pigweed (Amaranthus retroflexus); assay: Test A postemergence; details: Amaranthus retroflexus, post-emergence, 240 h
Summary of the method: as §2

[6] = system: Galium (catchweed bedstraw, Galium aparine); assay: Test A postemergence; details: Galium, post-emergence, 240 h
Summary of the method: as §2

corn (Zea mays) = assay: Test A postemergence; details: Zea mays, post-emergence, 240 h
Summary of the method: as §2

[7] = system: ragweed (common ragweed, Ambrosia elatior); assay: Test A postemergence; details: Ambrosia artemisiifolia, post-emergence, 240 h
Summary of the method: as §2

[8] = system: barnyardgrass (Echinochloa crus-galli); assay: Test A postemergence; details: Echinochloa crus-galli, post-emergence, 240 h
Summary of the method: as §2

Kochia (Kochia scoparia) [9] = assay: Test A postemergence; details: Bassia scoparia, post-emergence, 240 h
Summary of the method: as §2

[10] = system: giant foxtail (Setaria faberii); assay: Test A postemergence; details: Setaria faberi, post-emergence, 240 h
Summary of the method: as §2

[11] = system: blackgrass (Alopecurus myosuroides); assay: Test A postemergence; details: Alopecurus myosuroides, post-emergence, 240 h
Summary of the method: as §2

[12] = system: wheat (Triticum aestivum); assay: Test A postemergence; details: Triticum aestivum, post-emergence, 240 h
Summary of the method: as §2

[13] = system: ryegrass, Italian (Italian ryegrass, Lolium multiflorum); assay: Test A preemergence; details: Lolium multiflorum, pre-emergence, 240 h, 0 to 100 scale where 0 is no effect and 100 is complete control, read-out: Ryegrass, Italian plant response rating
Summary of the method: as §2

[14] = system: pigweed (Amaranthus retroflexus); assay: Test A preemergence; details: Amaranthus retroflexus, pre-emergence, 240 h, 0 to 100 scale where 0 is no effect and 100 is complete control, read-out: Pigweed plant response rating
[15] = system: ragweed (common ragweed, Ambrosia elatior); assay: Test A preemergence; details: Ambrosia artemisiifolia, pre-emergence, 240 h, 0 to 100 scale where 0 is no effect and 100 is complete control, read-out: Ragweed plant response rating
Summary of the method: as §2

[16] = system: barnyardgrass (Echinochloa crus-galli); assay: Test A preemergence; details: Echinochloa crus-galli, pre-emergence, 240 h, 0 to 100 scale where 0 is no effect and 100 is complete control, read-out: Barnyardgrass plant response rating
Summary of the method: as §2

Kochia (Kochia scoparia) [17] = assay: Test A preemergence; details: Bassia scoparia, pre-emergence, 240 h, 0 to 100 scale where 0 is no effect and 100 is complete control, read-out: Kochia plant response rating
Summary of the method: as §2

[18] = system: giant foxtail (Setaria faberii); assay: Test A preemergence; details: Setaria faberi, pre-emergence, 240 h, 0 to 100 scale where 0 is no effect and 100 is complete control, read-out: Foxtail, Giant plant response rating
Summary of the method: as §2

[19] = 125 g ai/ha, preemergence, approx. 10 d

Compound: CN1C[C@H](c2csc3c2CCC3)[C@@H](C(=O)Nc2ccc(F)c(F)c2F)C1=O [Compound 1081]
- pest or weed control at 250 g/ha [1]: 80%
- pest or weed control at 250 g/ha [2]: 90%
- pest or weed control at 250 g/ha (rice (Oryra sativa)): 40%
- pest or weed control at 250 g/ha [3]: 0%
- pest or weed control at 125 g/ha ([4]; 125 g ai/ha, postemergence, visual injury on 0 to 100 scale (0 no effect, 100 complete control), approx. 10 d, read-out: Ryegrass, Italian plant response rating): 0%
- pest or weed control at 31 g/ha ([4]; Postemergence, 31 g ai/ha, visual injury after approx. 10 d, 0 to 100 scale, 0 no effect, 100 complete control, read-out: Plant response rating, Ryegrass, Italian): 0%
- pest or weed control at 125 g/ha ([5]; 125 g ai/ha, postemergence, visual injury on 0 to 100 scale (0 no effect, 100 complete control), approx. 10 d, read-out: Pigweed plant response rating): 0%
- pest or weed control at 31 g/ha ([5]; Postemergence, 31 g ai/ha, visual injury after approx. 10 d, 0 to 100 scale, 0 no effect, 100 complete control, read-out: Plant response rating, Pigweed): 0%
- pest or weed control at 125 g/ha ([6]; 125 g ai/ha, postemergence, visual injury on 0 to 100 scale (0 no effect, 100 complete control), approx. 10 d, read-out: Galium plant response rating): 20%
- pest or weed control at 31 g/ha ([6]; Postemergence, 31 g ai/ha, visual injury after approx. 10 d, 0 to 100 scale, 0 no effect, 100 complete control, read-out: Plant response rating, Galium): 0%
- plant injury at 125 g/ha (corn (Zea mays); 125 g ai/ha, postemergence, visual injury on 0 to 100 scale (0 no effect, 100 complete control), approx. 10 d, read-out: Corn plant response rating): 20%
- Corn plant response rating (crop injury, 0 = no effect, 100 = complete kill) at 31 g/ha (corn (Zea mays); Postemergence, 31 g ai/ha, visual injury after approx. 10 d, 0 to 100 scale, 0 no effect, 100 complete control): 0%
- pest or weed control at 125 g/ha ([7]; 125 g ai/ha, postemergence, visual injury on 0 to 100 scale (0 no effect, 100 complete control), approx. 10 d, read-out: Ragweed plant response rating): 0%
- pest or weed control at 31 g/ha ([7]; Postemergence, 31 g ai/ha, visual injury after approx. 10 d, 0 to 100 scale, 0 no effect, 100 complete control, read-out: Plant response rating, Ragweed): 0%
- pest or weed control at 125 g/ha ([8]; 125 g ai/ha, postemergence, visual injury on 0 to 100 scale (0 no effect, 100 complete control), approx. 10 d, read-out: Barnyardgrass plant response rating): 90%
- pest or weed control at 31 g/ha ([8]; Postemergence, 31 g ai/ha, visual injury after approx. 10 d, 0 to 100 scale, 0 no effect, 100 complete control, read-out: Plant response rating, Barnyardgrass): 30%
- pest or weed control at 125 g/ha (Kochia (Kochia scoparia) [9]; 125 g ai/ha, postemergence, visual injury on 0 to 100 scale (0 no effect, 100 complete control), approx. 10 d, read-out: Kochia plant response rating): 0%
- pest or weed control at 31 g/ha (Kochia (Kochia scoparia) [9]; Postemergence, 31 g ai/ha, visual injury after approx. 10 d, 0 to 100 scale, 0 no effect, 100 complete control, read-out: Plant response rating, Kochia): 0%
- pest or weed control at 125 g/ha ([10]; 125 g ai/ha, postemergence, visual injury on 0 to 100 scale (0 no effect, 100 complete control), approx. 10 d, read-out: Foxtail, Giant plant response rating): 80%
- pest or weed control at 31 g/ha ([10]; Postemergence, 31 g ai/ha, visual injury after approx. 10 d, 0 to 100 scale, 0 no effect, 100 complete control, read-out: Plant response rating, Foxtail, Giant): 10%
- pest or weed control at 125 g/ha ([11]; 125 g ai/ha, postemergence, visual injury on 0 to 100 scale (0 no effect, 100 complete control), approx. 10 d, read-out: Blackgrass plant response rating): 0%
- pest or weed control at 31 g/ha ([11]; Postemergence, 31 g ai/ha, visual injury after approx. 10 d, 0 to 100 scale, 0 no effect, 100 complete control, read-out: Plant response rating, Blackgrass): 0%
- plant injury at 125 g/ha ([12]; 125 g ai/ha, postemergence, visual injury on 0 to 100 scale (0 no effect, 100 complete control), approx. 10 d, read-out: Wheat plant response rating): 20%
- plant injury at 31 g/ha ([12]; Postemergence, 31 g ai/ha, visual injury after approx. 10 d, 0 to 100 scale, 0 no effect, 100 complete control, read-out: Plant response rating, Wheat): 0%
- pest or weed control at 31 g/ha ([13]; 31 g ai/ha, Preemergence): 0%
- pest or weed control at 125 g/ha [13, 19]: 0%
- pest or weed control at 31 g/ha ([14]; 31 g ai/ha, Preemergence): 0%
- pest or weed control at 125 g/ha [14, 19]: 0%
- pest or weed control at 31 g/ha ([15]; 31 g ai/ha, Preemergence): 0%
- pest or weed control at 125 g/ha [15, 19]: 0%
- pest or weed control at 31 g/ha ([16]; 31 g ai/ha, Preemergence): 10%
- pest or weed control at 125 g/ha [16, 19]: 90%
- pest or weed control at 31 g/ha (Kochia (Kochia scoparia) [17]; 31 g ai/ha, Preemergence): 20%
- pest or weed control at 125 g/ha (Kochia (Kochia scoparia) [17]; [19]): 30%
- pest or weed control at 31 g/ha ([18]; 31 g ai/ha, Preemergence): 100%
- pest or weed control at 125 g/ha [18, 19]: 100%
